Reference: PubChem BioAssay (NCI)
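Test compounds were applied to cells in 96-well plates for 48 hours at 5 doses. GI50: concentration for 50% inhibition of growth. At the TGI there is no net growth.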

Legend:
Assay in all cases: NCI anticancer screen, dose series, 48 h
HCT-15 colon = system: HCT-15 colon
DU-145 prostate = system: DU-145 prostate
RXF 393 renal = system: RXF 393 renal
A498 renal = system: A498 renal
NCI-H522 lung = system: NCI-H522 lung
SF-539 CNS = system: SF-539 CNS
RPMI-8226 leukemia = system: RPMI-8226 leukemia
OVCAR-4 ovarian = system: OVCAR-4 ovarian
TK-10 renal = system: TK-10 renal
SK-OV-3 ovarian = system: SK-OV-3 ovarian
UO-31 renal = system: UO-31 renal
EKVX NSCLC = system: EKVX NSCLC
SN12C renal = system: SN12C renal
M14 melanoma = system: M14 melanoma
HOP-62 NSCLC = system: HOP-62 NSCLC
A549 NSCLC = system: A549 NSCLC
IGROV1 ovarian = system: IGROV1 ovarian
HCC-2998 colon = system: HCC-2998 colon
U251 CNS = system: U251 CNS
UACC-62 melanoma = system: UACC-62 melanoma
HS 578T breast = system: HS 578T breast
SK-MEL-28 melanoma = system: SK-MEL-28 melanoma
NCI/ADR-RES ovarian = system: NCI/ADR-RES ovarian
UACC-257 melanoma = system: UACC-257 melanoma
OVCAR-8 ovarian = system: OVCAR-8 ovarian
NCI-H23 lung = system: NCI-H23 lung
SF-295 CNS = system: SF-295 CNS
CCRF-CEM leukemia = system: CCRF-CEM leukemia
MDA-MB-231 breast = system: MDA-MB-231 breast
COLO 205 colon = system: COLO 205 colon
786-0 renal = system: 786-0 renal
SF-268 CNS = system: SF-268 CNS
T-47D breast = system: T-47D breast
MALME-3M melanoma = system: MALME-3M melanoma
SW-620 colon = system: SW-620 colon
MOLT-4 leukemia = system: MOLT-4 leukemia
MDA-MB-435 = system: MDA-MB-435
NCI-H460 lung = system: NCI-H460 lung
SR leukemia = system: SR leukemia
SK-MEL-5 melanoma = system: SK-MEL-5 melanoma
LOX IMVI melanoma = system: LOX IMVI melanoma
HL-60(TB) leukemia = system: HL-60(TB) leukemia
CAKI-1 renal = system: CAKI-1 renal
PC-3 prostate = system: PC-3 prostate
MCF7 breast = system: MCF7 breast
NCI-H226 lung = system: NCI-H226 lung
BT-549 breast = system: BT-549 breast
SNB-75 CNS = system: SNB-75 CNS
ACHN renal = system: ACHN renal
HT29 colon = system: HT29 colon
SNB-19 CNS = system: SNB-19 CNS
OVCAR-5 ovarian = system: OVCAR-5 ovarian
KM12 colon = system: KM12 colon
HCT-116 colon = system: HCT-116 colon
K-562 leukemia = system: K-562 leukemia
SK-MEL-2 melanoma = system: SK-MEL-2 melanoma

**Q.** What does the source list for `O=C(N/N=C\c1ccc(Cl)cc1)c1ccc2nc(-c3ccc(Br)cc3)[nH]c2c1`?
**A.** GI50 (HCT-15 colon): 1520 nM; TGI (HCT-15 colon): 3.33 µM; GI50 (DU-145 prostate): 1980 nM; TGI (DU-145 prostate): 4.18 µM; GI50 (RXF 393 renal): 1500 nM; TGI (RXF 393 renal): 3.18 µM; GI50 (A498 renal): 1670 nM; TGI (A498 renal): 3.68 µM; GI50 (NCI-H522 lung): 1630 nM; TGI (NCI-H522 lung): 3.38 µM; GI50 (SF-539 CNS): 1720 nM; TGI (SF-539 CNS): 3.24 µM; GI50 (RPMI-8226 leukemia): 1600 nM; TGI (RPMI-8226 leukemia): 3.89 µM; GI50 (OVCAR-4 ovarian): 2070 nM; TGI (OVCAR-4 ovarian): 4.83 µM; GI50 (TK-10 renal): 2070 nM; TGI (TK-10 renal): 3.89 µM; GI50 (SK-OV-3 ovarian): 1510 nM; TGI (SK-OV-3 ovarian): 3.87 µM; GI50 (UO-31 renal): 1450 nM; TGI (UO-31 renal): 2860 nM; GI50 (EKVX NSCLC): 2030 nM; TGI (EKVX NSCLC): 4.28 µM; GI50 (SN12C renal): 1760 nM; TGI (SN12C renal): 3.49 µM; GI50 (M14 melanoma): 1920 nM; TGI (M14 melanoma): 3.93 µM; GI50 (HOP-62 NSCLC): 1640 nM; TGI (HOP-62 NSCLC): 3.2 µM; GI50 (A549 NSCLC): 1750 nM; TGI (A549 NSCLC): 3.3 µM; GI50 (IGROV1 ovarian): 1580 nM; TGI (IGROV1 ovarian): 3.41 µM; GI50 (HCC-2998 colon): 1830 nM; TGI (HCC-2998 colon): 3.61 µM; GI50 (U251 CNS): 1780 nM; TGI (U251 CNS): 3.18 µM; GI50 (UACC-62 melanoma): 1850 nM; TGI (UACC-62 melanoma): 3.85 µM; GI50 (HS 578T breast): 2190 nM; TGI (HS 578T breast): 5.27 µM; GI50 (SK-MEL-28 melanoma): 1730 nM; TGI (SK-MEL-28 melanoma): 3.26 µM; GI50 (NCI/ADR-RES ovarian): 2440 nM; TGI (NCI/ADR-RES ovarian): 8.01 µM; GI50 (UACC-257 melanoma): 1600 nM; TGI (UACC-257 melanoma): 3.1 µM; GI50 (OVCAR-8 ovarian): 1490 nM; TGI (OVCAR-8 ovarian): 2880 nM; GI50 (NCI-H23 lung): 1860 nM; TGI (NCI-H23 lung): 4.02 µM; GI50 (SF-295 CNS): 2070 nM; TGI (SF-295 CNS): 4.59 µM; GI50 (CCRF-CEM leukemia): 1900 nM; TGI (CCRF-CEM leukemia): 4.73 µM; GI50 (MDA-MB-231 breast): 1900 nM; TGI (MDA-MB-231 breast): 3.89 µM; GI50 (COLO 205 colon): 1430 nM; TGI (COLO 205 colon): 2.86 µM; GI50 (786-0 renal): 1760 nM; TGI (786-0 renal): 3.26 µM; GI50 (SF-268 CNS): 2560 nM; TGI (SF-268 CNS): 6.87 µM; GI50 (T-47D breast): 1580 nM; TGI (T-47D breast): 3.25 µM; GI50 (MALME-3M melanoma): 1680 nM; TGI (MALME-3M melanoma): 3.22 µM; GI50 (SW-620 colon): 1600 nM; TGI (SW-620 colon): 3.26 µM; GI50 (MOLT-4 leukemia): 1620 nM; TGI (MOLT-4 leukemia): 4.29 µM; GI50 (MDA-MB-435): 1520 nM; TGI (MDA-MB-435): 3.15 µM; GI50 (NCI-H460 lung): 601 nM; TGI (NCI-H460 lung): 1940 nM; GI50 (SR leukemia): 895 nM; TGI (SR leukemia): 3.39 µM; GI50 (SK-MEL-5 melanoma): 1850 nM; TGI (SK-MEL-5 melanoma): 3.63 µM; GI50 (LOX IMVI melanoma): 1490 nM; TGI (LOX IMVI melanoma): 3.09 µM; GI50 (HL-60(TB) leukemia): 2040 nM; TGI (HL-60(TB) leukemia): 5.03 µM; GI50 (CAKI-1 renal): 1600 nM; TGI (CAKI-1 renal): 3.1 µM; GI50 (PC-3 prostate): 1580 nM; TGI (PC-3 prostate): 2990 nM; GI50 (MCF7 breast): 1010 nM; TGI (MCF7 breast): 2460 nM; GI50 (NCI-H226 lung): 4.96 µM; TGI (NCI-H226 lung): 24 µM; GI50 (BT-549 breast): 1870 nM; TGI (BT-549 breast): 5.54 µM; GI50 (SNB-75 CNS): 1830 nM; TGI (SNB-75 CNS): 4.01 µM; GI50 (ACHN renal): 1750 nM; TGI (ACHN renal): 3.17 µM; GI50 (HT29 colon): 1040 nM; TGI (HT29 colon): 2380 nM; GI50 (SNB-19 CNS): 2110 nM; TGI (SNB-19 CNS): 4.91 µM; GI50 (OVCAR-5 ovarian): 1990 nM; TGI (OVCAR-5 ovarian): 4.26 µM; GI50 (KM12 colon): 1860 nM; TGI (KM12 colon): 4.16 µM; GI50 (HCT-116 colon): 1490 nM; TGI (HCT-116 colon): 2990 nM

**Q.** Which results are given for `Nc1cc(-c2c[nH]c3ccc(Br)cc23)nc2cc(-c3c[nH]c4ccc(Br)cc34)nn12`?
**A.** GI50 (HCT-15 colon): 1360 nM; TGI (HCT-15 colon): 3.18 µM; GI50 (DU-145 prostate): 1720 nM; TGI (DU-145 prostate): 3.23 µM; GI50 (RXF 393 renal): 1830 nM; TGI (RXF 393 renal): 3.54 µM; GI50 (A498 renal): 1570 nM; TGI (A498 renal): 4.07 µM; GI50 (SF-539 CNS): 1460 nM; TGI (SF-539 CNS): 2.92 µM; GI50 (RPMI-8226 leukemia): 3170 nM; TGI (RPMI-8226 leukemia): > 100 µM; GI50 (OVCAR-4 ovarian): 2030 nM; TGI (OVCAR-4 ovarian): 5.25 µM; GI50 (TK-10 renal): 1800 nM; TGI (TK-10 renal): 3.39 µM; GI50 (SK-OV-3 ovarian): 1710 nM; TGI (SK-OV-3 ovarian): 3.44 µM; GI50 (UO-31 renal): 1470 nM; TGI (UO-31 renal): 2790 nM; GI50 (SN12C renal): 1840 nM; TGI (SN12C renal): 3.64 µM; GI50 (K-562 leukemia): 2810 nM; TGI (K-562 leukemia): > 100 µM; GI50 (HCC-2998 colon): 1800 nM; TGI (HCC-2998 colon): 3.34 µM; GI50 (SK-MEL-2 melanoma): 1670 nM; TGI (SK-MEL-2 melanoma): 3.27 µM; GI50 (UACC-62 melanoma): 1480 nM; TGI (UACC-62 melanoma): 3.05 µM; GI50 (HS 578T breast): 2300 nM; TGI (HS 578T breast): 7.54 µM; GI50 (SK-MEL-28 melanoma): 1620 nM; TGI (SK-MEL-28 melanoma): 3.08 µM; GI50 (NCI/ADR-RES ovarian): 2500 nM; TGI (NCI/ADR-RES ovarian): 6.14 µM; GI50 (UACC-257 melanoma): 1630 nM; TGI (UACC-257 melanoma): 3.2 µM; GI50 (SF-295 CNS): 1890 nM; TGI (SF-295 CNS): 3.57 µM; GI50 (CCRF-CEM leukemia): 3210 nM; TGI (CCRF-CEM leukemia): > 100 µM; GI50 (MDA-MB-231 breast): 1890 nM; TGI (MDA-MB-231 breast): 3.79 µM; GI50 (COLO 205 colon): 1760 nM; TGI (COLO 205 colon): 3.23 µM; GI50 (MALME-3M melanoma): 1930 nM; TGI (MALME-3M melanoma): 4.08 µM; GI50 (MDA-MB-435): 1710 nM; TGI (MDA-MB-435): 3.25 µM; GI50 (SK-MEL-5 melanoma): 1700 nM; TGI (SK-MEL-5 melanoma): 3.18 µM; GI50 (CAKI-1 renal): 1430 nM; TGI (CAKI-1 renal): 3.15 µM; GI50 (NCI-H226 lung): 2.14 µM; TGI (NCI-H226 lung): 6.11 µM; GI50 (SNB-75 CNS): 1170 nM; TGI (SNB-75 CNS): 3.77 µM; GI50 (ACHN renal): 1560 nM; TGI (ACHN renal): 2.96 µM; GI50 (HT29 colon): 1710 nM; TGI (HT29 colon): 3150 nM; GI50 (OVCAR-5 ovarian): 1530 nM; TGI (OVCAR-5 ovarian): 3.11 µM; GI50 (KM12 colon): 1480 nM; TGI (KM12 colon): 2.96 µM
